Measured values taken from US8580814B2, “Methods of using (+)-1,4-dihydro-7-[(3S,4S)-3-methoxy-4-(methylamino)-1-pyrrolidinyl]-4- oxo-1-(2-thiazolyl)-1,8-naphthyridine-3-carboxylic acid for treatment of cancer” (priority 2006, dated 2013).
≈ marks a conversion by molar mass, not a printed value. Marks after values point to notes of the source that are not given here.

Legend:
[1] = system: HCT-116 cells treated with 2 mM caffeine; test: MTT assay, sensitization (caffeine); assay type: cell-based; conditions: 2 mM caffeine pre-treated for 16 hours, compound 72 hours
Method: (§1) Cells were then incubated with 5% MTT for 1-2 hours and lysed. MTT was colorimetrically read at 570 nm and EC50's were determined using linear regression analysis.
(§2) Sensitization was carried out with various chemical treatments.

[2] = system: MO59J (DNAPKcs(−/−)) vs MO59K (DNAPKCs(+/+)); test: MTT assay, sensitization (DNAPKcs(−/−)); assay type: cell-based; conditions: MO59J (DNAPKcs(−/−)) vs MO59K (DNAPKCs(+/+)); compound 72 hours
Method: as §1, §2

[3] = system: HCT-116 cells with 6 fold lower ATR levels; test: MTT assay, sensitization (ATRFLOX); assay type: cell-based; conditions: compound 72 hours
Method: as §1, §2

[4] = system: CEM/C2 (camptothecan resistant derivative of CCRF-CEM); test: MTT cell viability assay, leukemia cells; assay type: cell-based; conditions: Homo sapiens; CEM/C2, MTT after 72 hours
Method: (§3) The following cell lines were used in this assay: HL-60 (promyelocytic leukemia); Jurkat (T cell leukemia); CCRF-CEM (lymphoblastic leukemia); CEM/C2 (camptothecan resistant derivative of CCRF-CEM). Cells were seeded in 96 wells plates at 3000 cells per well and incubated for 16 hours. […] Titrations were diluted 1:100 in media to achieve final compound concentrations. The 96 well plates were aspirated and compound dilutions in media were added ([…]). MTT analysis was carried out after 72 hours of incubation at 37° C. Briefly, […] of MTT solution was added to each well. Cells were incubated at 37° C. for 1-2 hours. […] Plates were read on a spectromax machine with an absorbance measurement at […]. IC50's were calculated (data provided in Table 13) using regression analysis within GraphPad Prism.

[5] = system: CCRF-CEM (lymphoblastic leukemia); test: MTT cell viability assay, leukemia cells; assay type: cell-based; conditions: Homo sapiens, MTT after 72 hours
Method: as §3

[6] = system: HL-60 (promyelocytic leukemia); test: MTT cell viability assay, leukemia cells; assay type: cell-based; conditions: Homo sapiens; HL-60, MTT after 72 hours
Method: as §3

[7] = system: LM3-Jck human malignant lymphoma tumor; test: LM3-Jck xenograft model; assay type: in vivo, nude mice
Method: LM3-Jck human malignant lymphoma tumor lobes (2-3 mm square) were transplanted subcutaneously into nude mice. Tumors were allowed to grow to approximately 7-14 mm in diameter. […] Acceptable toxicity was defined as a mean group weight loss of 30% or less and not more than one toxic death among 6 treated animals. Anti-tumor activities of the drugs were assessed 21 days after the start of administration.

[8] = system: CCRF-CEM acute lymphoblastic leukemia tumor; test: CCRF-CEM xenograft model; assay type: in vivo, nude mice
Method: CCRF-CEM acute lymphoblastic leukemia tumor lobes of 2-3 mm square were transplanted subcutaneously into nude mice. Tumors were allowed to grow to approximately 8-20 mm in diameter. […] Acceptable toxicity was defined as a mean group weight loss of 30% or less and not more than one toxic death among 6 treated animals. Anti-tumor activities of the drugs were assessed 20 or 21 days after the start of administration. Table 14 provides data for tumor inhibition (TI) and survival rate in the CCRF-CEM and LM3-Jck xenograft models.

CC[C@@]1(O)C(=O)OCc2c1cc1n(c2=O)Cc2cc3ccccc3nc2-1 [Camptothecin, reference compound]
Sensitization, fold decrease in the EC50 for cytotoxicity (MTT): Caffeine [1]: 6 fold | Sensitization, fold decrease in the EC50 for cytotoxicity (MTT): DNAPKcs(−/−) [2]: 0.7 fold | Sensitization, fold decrease in the EC50 for cytotoxicity (MTT): ATRFLOX [3]: 5 fold

COc1cccc2c1C(=O)c1c(O)c3c(c(O)c1C2=O)C[C@@](O)(C(=O)CO)C[C@@H]3O[C@H]1C[C@H](N)[C@H](O)[C@H](C)O1 [Doxorubicin, doxorubicin, reference compound]
IC50 [4]: 0.017 µg/mL (≈ 0.0313 µM) | IC50 [5]: 0.003 µg/mL (≈ 0.00552 µM) | IC50 [6]: 0.024 µg/mL (≈ 0.0442 µM) | IR (%) (tumor inhibition rate) ([7]; LM3-JcK, q7d X3, IV, 12 mg/kg): 57.2* % | Survival Ratio ([7]; nude, mouse, in vivo, iv, 12 mg/kg, 21 days): 6/6 | IR (%) (tumor inhibition rate) ([8]; q7d X3, IV, 12 mg/kg): 50.3* %

COc1cc([C@@H]2c3cc4c(cc3[C@@H](O[C@@H]3O[C@@H]5CO[C@@H](C)O[C@H]5[C@H](O)[C@H]3O)[C@H]3COC(=O)[C@H]23)OCO4)cc(OC)c1O [Etoposide, etoposide, reference compound]
IR (%) (tumor inhibition rate) ([7]; LM3-JcK, qd X 5, IV, 12 mg/kg): 3.0% | IR (%) (tumor inhibition rate) ([8]; qd X 5, IV, 12 mg/kg): 28.3%

CCc1c2c(nc3ccc(OC(=O)N4CCC(N5CCCCC5)CC4)cc13)-c1cc3c(c(=O)n1C2)COC(=O)[C@]3(O)CC [Irinotecan, irinotecan, reference compound]
IR (%) (tumor inhibition rate) ([7]; LM3-JcK, q4d x3, IV, 100 mg/kg): 97.7* % | Survival Ratio ([7]; LM3-JcK, q4d x3, IV, 100 mg/kg): 6/6 | IR (%) (tumor inhibition rate) ([8]; q4d x3, IV, 100 mg/kg): 99.7* % | Survival Ratio ([8]; q4d x3, IV, 100 mg/kg): 5/6
